# Assay results from patent publication US20240101521A1, “DIAMINOTRIAZINE COMPOUNDS” (BASF SE, priority 2021, published 2024).
# Assays:
# Experiment in all cases: greenhouse pre-emergence herbicidal test
# Type in all cases: in vivo
# Details in all cases: scale 0 to 100
# Setaria faberi = tested on: Setaria faberi
# Description: (§1) The culture containers used were plastic flowerpots containing loamy sand with approximately 3.0% of humus as the substrate. The seeds of the test plants were sown separately for each species.
# (§2) For the pre-emergence treatment, the active ingredients, which had been suspended or emulsified in water, were applied directly after sowing by means of finely distributing nozzles. The containers were irrigated gently to promote germination and growth and subsequently covered with transparent plastic hoods until the plants had rooted. This cover caused uniform germination of the test plants, unless this had been impaired by the active ingredients. For the post-emergence treatment, the test plants were first grown to a height of 3 to 15 cm, depending on the plant habit, and only then treated with the active ingredients which had been suspended or emulsified in water. For this purpose, the test plants were either sown directly and grown in the same containers, or they were first grown separately as seedlings and transplanted into the test containers a few days prior to treatment.
# (§3) Depending on the species, the plants were kept at 10-25° C. or 20-35° C., respectively.
# (§4) The test period extended over 2 to 4 weeks. During this time, the plants were tended, and their response to the individual treatments was evaluated.
# (§5) Evaluation was carried out using a scale from 0 to 100. 100 means no emergence of the plants, or complete destruction of at least the aerial moieties, and 0 means no damage, or normal course of growth. A moderate herbicidal activity is given at values of at least 60, a good herbicidal activity is given at values of at least 70, and a very good herbicidal activity is given at values of at least 85.
# (§6) The plants used in the greenhouse experiments were of the following species: […]
# Amaranthus retroflexus = tested on: Amaranthus retroflexus
# Description: as §1, §2, §3, §4, §5, §6
# Echinochloa crus-galli = tested on: Echinochloa crus-galli
# Description: as §1, §2, §3, §4, §5, §6
compound,measurement,setting,value
CC#CCOc1c(C)ccc(F)c1Nc1nc(N)nc(C(C)(C)F)n1 [Example 70],herbicidal activity,"Setaria faberi; pre-emergence, 62 g/ha",100%
same,herbicidal activity,"Amaranthus retroflexus; pre-emergence, 62 g/ha",100%
same,herbicidal activity,"Echinochloa crus-galli; pre-emergence, 62 g/ha",100%
C#CCOc1c(C)ccc(F)c1Nc1nc(N)nc(C(C)(C)F)n1 [Example 71],herbicidal activity,"Setaria faberi; pre-emergence, 62 g/ha",100%
same,herbicidal activity,"Amaranthus retroflexus; pre-emergence, 62 g/ha",100%
same,herbicidal activity,"Echinochloa crus-galli; pre-emergence, 62 g/ha",100%
COc1c(Cl)cc(Cl)c(F)c1Nc1nc(N)nc(C2(F)CC2)n1 [Example 72],herbicidal activity,"Setaria faberi; pre-emergence, 62 g/ha",100%
same,herbicidal activity,"Amaranthus retroflexus; pre-emergence, 62 g/ha",100%
same,herbicidal activity,"Echinochloa crus-galli; pre-emergence, 62 g/ha",100%
COc1c(Br)cc(C)c(F)c1Nc1nc(N)nc(C(C)(C)F)n1 [Example 73],herbicidal activity,"Setaria faberi; pre-emergence, 62 g/ha",100%
same,herbicidal activity,"Amaranthus retroflexus; pre-emergence, 62 g/ha",100%
same,herbicidal activity,"Echinochloa crus-galli; pre-emergence, 62 g/ha",100%
C#CCOc1c(Br)cc(C)c(F)c1Nc1nc(N)nc(C(C)(C)F)n1 [Example 74],herbicidal activity,"Setaria faberi; pre-emergence, 62 g/ha",100%
same,herbicidal activity,"Amaranthus retroflexus; pre-emergence, 62 g/ha",100%
same,herbicidal activity,"Echinochloa crus-galli; pre-emergence, 62 g/ha",100%
CC#CCOc1c(Br)cc(C)c(F)c1Nc1nc(N)nc(C(C)(C)F)n1 [Example 75],herbicidal activity,"Setaria faberi; pre-emergence, 62 g/ha",100%
same,herbicidal activity,"Amaranthus retroflexus; pre-emergence, 62 g/ha",100%
same,herbicidal activity,"Echinochloa crus-galli; pre-emergence, 62 g/ha",100%
COc1c(Br)cc(Cl)c(F)c1Nc1nc(N)nc(C(C)(C)F)n1 [Example 76],herbicidal activity,"Setaria faberi; pre-emergence, 62 g/ha",100%
same,herbicidal activity,"Amaranthus retroflexus; pre-emergence, 62 g/ha",100%
same,herbicidal activity,"Echinochloa crus-galli; pre-emergence, 62 g/ha",100%
C#CCOc1c(Br)cc(Cl)c(F)c1Nc1nc(N)nc(C(C)(C)F)n1 [Example 77],herbicidal activity,"Setaria faberi; pre-emergence, 62 g/ha",100%
same,herbicidal activity,"Amaranthus retroflexus; pre-emergence, 62 g/ha",100%
same,herbicidal activity,"Echinochloa crus-galli; pre-emergence, 62 g/ha",100%
CC#CCOc1c(Br)cc(Cl)c(F)c1Nc1nc(N)nc(C(C)(C)F)n1 [Example 78],herbicidal activity,"Setaria faberi; pre-emergence, 62 g/ha",100%
same,herbicidal activity,"Amaranthus retroflexus; pre-emergence, 62 g/ha",100%
same,herbicidal activity,"Echinochloa crus-galli; pre-emergence, 62 g/ha",100%
CC(C)(F)c1nc(N)nc(Nc2c(F)c(F)cc(Cl)c2OC(F)F)n1 [Example 80],herbicidal activity,"Setaria faberi; pre-emergence, 62 g/ha",100%
same,herbicidal activity,"Amaranthus retroflexus; pre-emergence, 62 g/ha",100%
same,herbicidal activity,"Echinochloa crus-galli; pre-emergence, 62 g/ha",100%
CC#CCOc1c(Cl)cc(F)c(F)c1Nc1nc(N)nc(C(C)(C)OC)n1 [Example 82],herbicidal activity,"Setaria faberi; pre-emergence, 62 g/ha",100%
same,herbicidal activity,"Amaranthus retroflexus; pre-emergence, 62 g/ha",100%
same,herbicidal activity,"Echinochloa crus-galli; pre-emergence, 62 g/ha",100%
CCOc1c(Cl)cc(Cl)c(F)c1Nc1nc(N)nc(C(C)(C)F)n1 [Example 83],herbicidal activity,"Setaria faberi; pre-emergence, 62 g/ha",100%
same,herbicidal activity,"Amaranthus retroflexus; pre-emergence, 62 g/ha",100%
same,herbicidal activity,"Echinochloa crus-galli; pre-emergence, 62 g/ha",100%
C#CCOc1c(Cl)cc(F)c(F)c1Nc1nc(N)nc(C(C)(F)CCl)n1 (centres unmarked) [Example 86],herbicidal activity,"Setaria faberi; pre-emergence, 62 g/ha",100%
same,herbicidal activity,"Amaranthus retroflexus; pre-emergence, 62 g/ha",100%
same,herbicidal activity,"Echinochloa crus-galli; pre-emergence, 62 g/ha",100%
C#CCOc1c(Br)cc(F)c(F)c1Nc1nc(N)nc(C(C)(C)OC)n1 [Example 87],herbicidal activity,"Setaria faberi; pre-emergence, 62 g/ha",100%
same,herbicidal activity,"Amaranthus retroflexus; pre-emergence, 62 g/ha",100%
same,herbicidal activity,"Echinochloa crus-galli; pre-emergence, 62 g/ha",100%
C#CCOc1c(Cl)cc(F)c(F)c1Nc1nc(N)nc(C(C)(C)OC)n1 [Example 88],herbicidal activity,"Setaria faberi; pre-emergence, 62 g/ha",100%
same,herbicidal activity,"Amaranthus retroflexus; pre-emergence, 62 g/ha",100%
same,herbicidal activity,"Echinochloa crus-galli; pre-emergence, 62 g/ha",100%
C#CCOc1c(Br)cc(F)c(F)c1Nc1nc(N)nc(C(C)F)n1 (centres unmarked) [Example 89],herbicidal activity,"Setaria faberi; pre-emergence, 62 g/ha",100%
same,herbicidal activity,"Amaranthus retroflexus; pre-emergence, 62 g/ha",100%
same,herbicidal activity,"Echinochloa crus-galli; pre-emergence, 62 g/ha",100%
CC#CCOc1c(Br)cc(F)c(F)c1Nc1nc(N)nc(C(C)F)n1 (centres unmarked) [Example 90],herbicidal activity,"Setaria faberi; pre-emergence, 62 g/ha",100%
same,herbicidal activity,"Amaranthus retroflexus; pre-emergence, 62 g/ha",100%
same,herbicidal activity,"Echinochloa crus-galli; pre-emergence, 62 g/ha",100%
C#CCOc1c(Cl)cc(F)c(F)c1Nc1nc(N)nc(C(C)F)n1 (centres unmarked) [Example 91],herbicidal activity,"Setaria faberi; pre-emergence, 62 g/ha",100%
same,herbicidal activity,"Amaranthus retroflexus; pre-emergence, 62 g/ha",100%
same,herbicidal activity,"Echinochloa crus-galli; pre-emergence, 62 g/ha",100%
CC#CCOc1c(Cl)cc(F)c(F)c1Nc1nc(N)nc(C(C)F)n1 (centres unmarked) [Example 92],herbicidal activity,"Setaria faberi; pre-emergence, 62 g/ha",100%
same,herbicidal activity,"Amaranthus retroflexus; pre-emergence, 62 g/ha",100%
same,herbicidal activity,"Echinochloa crus-galli; pre-emergence, 62 g/ha",100%
CC(C)(F)c1nc(N)nc(Nc2c(F)c(Cl)cc(Cl)c2OC(F)F)n1 [Example 93],herbicidal activity,"Setaria faberi; pre-emergence, 62 g/ha",100%
same,herbicidal activity,"Amaranthus retroflexus; pre-emergence, 62 g/ha",100%
same,herbicidal activity,"Echinochloa crus-galli; pre-emergence, 62 g/ha",100%
CC#CCOc1c(Cl)cc(F)c(F)c1Nc1nc(N)nc(C(F)C2CC2)n1 (centres unmarked) [Example 94],herbicidal activity,"Setaria faberi; pre-emergence, 62 g/ha",100%
same,herbicidal activity,"Amaranthus retroflexus; pre-emergence, 62 g/ha",100%
same,herbicidal activity,"Echinochloa crus-galli; pre-emergence, 62 g/ha",100%
CC#CC(C)Oc1c(Br)cc(F)c(F)c1Nc1nc(N)nc(C(C)(C)F)n1 (centres unmarked) [Example 95],herbicidal activity,"Setaria faberi; pre-emergence, 62 g/ha",100%
same,herbicidal activity,"Amaranthus retroflexus; pre-emergence, 62 g/ha",100%
same,herbicidal activity,"Echinochloa crus-galli; pre-emergence, 62 g/ha",100%
CC#CC(C)Oc1c(Br)cc(F)c(F)c1Nc1nc(N)nc(C2(F)CCCC2)n1 (centres unmarked) [Example 96],herbicidal activity,"Setaria faberi; pre-emergence, 62 g/ha",75%
same,herbicidal activity,"Echinochloa crus-galli; pre-emergence, 62 g/ha",70%
CCOc1c(Cl)cc(F)c(F)c1Nc1nc(N)nc(C2(F)CCCCC2)n1 [Example 110],herbicidal activity,"Setaria faberi; pre-emergence, 62,5 g/ha",85%
same,herbicidal activity,"Amaranthus retroflexus; pre-emergence, 62,5 g/ha",95%
same,herbicidal activity,"Echinochloa crus-galli; pre-emergence, 62,5 g/ha",100%
